Values of other authors as cited in patent publication US12201674B2 (EDIX SA, priority 2018, dated 2025).

What was measured:
[1] = molecular target: human somatostatin receptors (SSTR) 2 (Homo sapiens, UniProt P30874)
[2] = molecular target: SSTR 1 (Homo sapiens, UniProt P30872)
[3] = molecular target: SSTR 3 (Homo sapiens, UniProt P32745)
[4] = molecular target: SSTR 4 (Homo sapiens, UniProt P31391)
SSTR 4, sequence (P31391 whole entry): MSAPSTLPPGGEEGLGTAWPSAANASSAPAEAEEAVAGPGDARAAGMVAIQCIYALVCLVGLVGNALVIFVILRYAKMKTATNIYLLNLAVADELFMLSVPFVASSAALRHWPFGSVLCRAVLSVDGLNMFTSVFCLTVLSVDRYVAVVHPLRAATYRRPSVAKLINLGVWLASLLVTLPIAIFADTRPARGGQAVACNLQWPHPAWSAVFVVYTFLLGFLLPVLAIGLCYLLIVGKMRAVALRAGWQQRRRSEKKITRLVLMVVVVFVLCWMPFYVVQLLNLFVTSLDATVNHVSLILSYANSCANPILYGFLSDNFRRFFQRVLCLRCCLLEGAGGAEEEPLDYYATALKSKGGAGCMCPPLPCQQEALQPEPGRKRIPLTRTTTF

SSTR 1, sequence (P30872 whole entry): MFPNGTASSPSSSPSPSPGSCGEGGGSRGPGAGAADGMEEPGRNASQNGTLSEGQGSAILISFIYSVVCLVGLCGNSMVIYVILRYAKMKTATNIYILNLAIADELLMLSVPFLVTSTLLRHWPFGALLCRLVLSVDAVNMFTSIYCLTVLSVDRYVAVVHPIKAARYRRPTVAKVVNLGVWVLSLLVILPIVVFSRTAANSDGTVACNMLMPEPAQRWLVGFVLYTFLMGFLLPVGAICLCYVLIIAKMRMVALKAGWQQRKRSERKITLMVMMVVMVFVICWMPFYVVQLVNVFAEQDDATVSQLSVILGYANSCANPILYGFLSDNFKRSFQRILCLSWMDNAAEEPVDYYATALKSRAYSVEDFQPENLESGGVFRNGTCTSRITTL
SSTR 3, sequence (P32745 whole entry): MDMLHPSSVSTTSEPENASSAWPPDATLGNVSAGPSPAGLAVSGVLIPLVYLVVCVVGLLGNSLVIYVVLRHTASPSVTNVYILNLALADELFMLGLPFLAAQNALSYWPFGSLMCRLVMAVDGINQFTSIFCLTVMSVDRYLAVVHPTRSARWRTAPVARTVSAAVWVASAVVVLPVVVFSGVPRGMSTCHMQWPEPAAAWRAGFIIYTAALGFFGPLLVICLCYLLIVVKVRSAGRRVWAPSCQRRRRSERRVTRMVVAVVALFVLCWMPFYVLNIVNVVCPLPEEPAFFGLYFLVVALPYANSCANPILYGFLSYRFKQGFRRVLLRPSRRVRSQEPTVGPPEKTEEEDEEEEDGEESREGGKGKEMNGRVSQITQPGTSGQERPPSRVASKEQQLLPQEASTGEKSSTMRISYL
human somatostatin receptors (SSTR) 2, sequence (P30874 whole entry): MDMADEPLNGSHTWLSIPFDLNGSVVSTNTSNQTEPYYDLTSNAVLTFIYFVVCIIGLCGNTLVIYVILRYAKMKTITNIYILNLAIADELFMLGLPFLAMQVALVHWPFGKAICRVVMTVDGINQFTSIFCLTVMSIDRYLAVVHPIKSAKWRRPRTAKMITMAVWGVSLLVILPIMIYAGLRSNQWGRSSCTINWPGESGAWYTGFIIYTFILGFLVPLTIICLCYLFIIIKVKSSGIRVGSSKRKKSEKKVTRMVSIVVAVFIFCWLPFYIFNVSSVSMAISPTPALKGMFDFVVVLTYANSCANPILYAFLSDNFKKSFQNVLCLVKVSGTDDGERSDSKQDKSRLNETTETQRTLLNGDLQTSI

**Q.** Which affinity [1] does the source give for `CC(C)[C@@H]1NC(=O)[C@H](CCCCN)NC(=O)[C@@H](Cc2c[nH]c3ccccc23)NC(=O)[C@H](Cc2ccc(O)cc2)NC(=O)[C@@H](NC(=O)[C@H](N)Cc2ccc3ccccc3c2)CSSC[C@@H](C(=O)N[C@H](C(N)=O)[C@@H](C)O)NC1=O` [lanreotide] here?
**A.** high affinity

**Q.** What about the affinity [2] of the same molecule?
**A.** low affinity

**Q.** What about the affinity [3] of the same molecule?
**A.** low affinity

**Q.** What about the affinity [4] of the same molecule?
**A.** low affinity
